In a melting point compilation (Tetko et al.; mined from patent text by program, amines drawn as free bases though some values may be those of a salt) one finds melting point data, which are given here for 88 compounds.

A word on the melting point: it is the temperature, or range, at which the solid turns liquid. `OC1Cc2cc(F)c(F)cc2C1` showed a melting point of 57 to 58 °C. The same measure for `CCn1ncc(OCc2ccc(C(=O)c3ccc(Cl)cc3)s2)c(Cl)c1=O`: 168 °C; for `CC(=O)Nc1ccc(C(=O)N2CC2C#N)c(OC(C)=O)c1` (stereo not drawn): 118 to 120 °C.

Turning to `CC(C)(C)NCC(O)c1ccc(OCc2ccccc2)c(C(N)=O)c1` (stereo not drawn), the melting point came out at 120 °C.

For `Cc1ccccc1-c1nc(-c2ccc(Cl)cc2)n[nH]1`, the melting point was in the range of 150 to 151 °C. The same measure for `CCC1(C)OC(c2ccc(S(N)(=O)=O)cc2)=C(c2ccccc2)C1=O` (stereo not drawn): 153 to 154 °C; for `COc1ccc(C(=O)N2CCc3cc(O)ccc3C2)cc1OC`: 58 to 77 °C. The same measure for `C[C@]1(CN2CCN(NCc3ccc(C(F)(F)F)cc3)CC2)Cn2cc([N+](=O)[O-])nc2O1`: 131 to 136 °C; for `CN(C(=O)Nc1c(F)cc(F)cc1CCc1cc(C(C)(C)C)c(O)c(C(C)(C)C)c1)C1CCN(Cc2ccccc2)CC1`: 187 to 191 °C. For `CCCCSc1cc(C(=O)OCC)cc(S(N)(=O)=O)c1Cc1ccccc1` the value was 120 to 122 °C; for `CCc1nc(C(=O)NCC(C=C(C)C(CC)[N+](=O)[O-])=NO)c[nH]1` (stereo not drawn), 75 to 79 °C.

In turn, `CCCN(Cc1ccc(-c2ccccc2-c2nnnn2C(c2ccccc2)(c2ccccc2)c2ccccc2)cc1)c1ncccc1C(=O)OCC` gave a melting point of 129 to 131 °C. For `CC(=O)N1c2ccccc2-n2cnc(-c3nc(C4CC4)no3)c2C1(C)C` the value was 169 to 171 °C.

With `CC(C)(O)Cn1c(CO)nc2c(N)nc3cc(-c4ccc(F)c(F)c4)cnc3c21`, the melting point lay within 256 to 258 °C. For `OCCc1ccc(OCc2ccc(Cl)cc2Cl)cc1` the value was 55 °C; for `CC1C=CC(NC(=O)OC(C)(C)C)C([N+](=O)[O-])C1c1cc([N+](=O)[O-])ccc1Cl` (stereo not drawn), 195 to 203 °C; for `CC(Cn1c(=S)[nH]c2ccccc2c1=O)N1CCC(C(=O)c2ccc(F)cc2)CC1` (stereo not drawn), 161 °C.

Take `c1ccc(-c2cc3c(nn2)-c2ccccc2CN3)cc1`: the melting point lay within 250 to 252 °C. For `COc1ccc2cc(C3=C(CC(=O)O)CCCC3=O)ccc2c1Br` the value was 165 to 166 °C. The same measure for `c1ccc2cc3[nH]c(SCc4ncc[nH]4)nc3cc2c1`: 172 °C; for `CCOCCNC(=O)Oc1cccc(NC(=O)C=C(C)OC)c1`: 133 to 134 °C; for `CC12CC(N3CCOCC3)C(O)CC1CCC1C2CCC2(C)C(C(=O)CCl)CCC12` (stereo not drawn): 181 °C. For `Cc1ccc(-c2nc(Cc3cc4cc(CCl)ccc4o3)c(C)o2)cc1` the value was 145 to 146 °C; for `CC(=O)Oc1ccc(-c2c3ccccc3cc3sc(C)c(C)c23)cc1`, 147 to 150 °C; for `Cc1[nH]c(=S)n(Nc2cccc([N+](=O)[O-])c2)c1-c1ccccc1`, 214 °C. `COc1ccc2c(c1)C(=O)C(=O)C1=C2OC2(CCN(Cc3ccc(F)cc3)CC2)CS1` came in with a melting point of 219 to 221 °C. Regarding `COc1cc(CCCN2CCc3cc(OC)c(OC)cc3C2)ccc1NC(=O)c1cccc2c(=O)c3cccc(C)c3[nH]c12`, the melting point was found to be 174 °C. `CN(C)N=C1CCC2C3CCc4cc(O[Si](C)(C)C(C)(C)C)ccc4C3CCC12C` (stereo not drawn) displayed a melting point of 100 to 103 °C. `COc1ccc2sc(C(=O)Oc3ccccc3)c(Oc3ccccc3)c2c1` registered a melting point of 198 °C. For `O=C(Nc1ccccc1)c1ccc2c(c1)S(=O)(=O)NCN2C1CC1` the value was 268 to 270 °C. For `COc1ccc2c(c1)CCC1C2CCC2(C)C(=O)CC(C(C)C)C12` (stereo not drawn) the value was 104 to 108 °C. For `CCOP(=O)(NCC(=O)OCc1ccccc1)C1CC(c2ccccc2)=NO1` (stereo not drawn), the melting point lay within 91 to 103 °C. The same measure for `CCc1cc(NCc2ccc(-n3cccc3-c3nnn[nH]3)cc2)n2nccc2n1`: 129 to 130 °C; for `COc1cc(C)c(C=C2COCC(=Cc3cc(C)c(OC)cc3C)C2=O)cc1C`: 182 to 184 °C. For the compound `O=C(Cc1cccc(O)c1)NNC(=O)c1ccc(O)c([N+](=O)[O-])c1`, the melting point fell in the range of 190 to 193 °C. For `O=C(C1CCCN1)N1CCN(c2nc(N3CCCC3)nc(N3CCCC3)n2)CC1` (stereo not drawn) the value was 143 °C; for `Cc1cc(C(=O)N(C)CCO)ncc1C(c1cc(F)ccc1F)S(=O)(=O)c1ccc(F)cc1` (stereo not drawn), 123 to 125 °C. The same measure for `CCC(=O)Nc1c(Cl)cnn1-c1ccc(Cl)c(Cl)c1Cl`: 122 °C; for `O=C1CCC(N2Cc3cc(CNC(=O)Nc4cc(Cl)ccc4Cl)ccc3C2=O)C(=O)N1` (stereo not drawn): 269 to 271 °C. The same measure for `C[Si](C)(CCSCCCNC(=O)n1cc(F)c(=O)[nH]c1=O)c1ccccc1`: 93.5 to 94 °C; for `Oc1ccc(O)c(-c2nc3cc(O)ccc3o2)c1`: 309 to 311 °C.

`COCC1=C(C(=O)OC)[C@H](c2ccc(F)c(F)c2)N(C(=O)NCCC(=O)O)C(=O)N1`: the melting point lay within 52 to 55 °C. For `C[C@@H](n1cnc2cc(OCC(F)F)ccc2c1=O)[C@](O)(Cn1cncn1)c1ccc(F)cc1F` the value was 96 to 102 °C; for `COC(=O)COc1ccsc1-c1nsc2ccc(-n3c(=O)cc(C(F)(F)F)n(C)c3=O)cc12`, 73 to 79 °C; for `O=C1CCC(c2cccc(F)c2)(c2cccc(F)c2)[C@@H]2CN(Cc3ccccc3)C[C@H]12` (racemic), 124 °C. The same measure for `COc1ccc2c(Cl)nccc2c1`: 72 to 74 °C. The same measure for `O=S(=O)(c1nc[nH]n1)c1ccc(C(F)(F)F)cc1Cl`: 222 to 224 °C; for `CC(C)(C)Nc1ccccc1C(CCC1CCCCC1)C(=O)c1cccc(Cl)c1` (stereo not drawn): 150 to 152 °C. Consider `CCNC(=O)n1nc(Oc2ccc(F)cc2[N+](=O)[O-])cc1C`, for which the melting point lay in the range of 81 to 84 °C.

Consider `Cc1nc(N2CCOCC2)nc(C)c1-c1cccc2c1OC[C@H]2Nc1ccc2c(c1)OC[C@H]2CC(=O)O`, for which the melting point was determined as 168 °C. The same measure for `CCOC(=O)C(=CNc1ncnc2ccc(N3CCN(C)CC3)cc12)C(=O)OCC`: 154 to 159 °C; for `N#Cc1cnn(-c2ccc(C(F)(F)F)cc2Cl)c1Br`: 127 °C. For `Cc1[nH]c2ncnc(N3CCCc4ccccc43)c2c1C` the value was 263 to 264 °C; for `O=C(O)COc1ccc(C=CC(=O)c2ccc(C(=O)O)cc2)cc1`, 312 to 314 °C; for `Nc1ccc(NC(=O)OCc2ccccc2)c(O)c1`, 148 °C.

Compound `O=C1c2ccccc2-n2cncc2[C@@H]2CCCN12` showed a melting point of 211 to 212 °C. For `BrC(Br)(Br)c1nnnn1-c1ccccc1` the value was 141 to 142 °C; for `COc1ccc2oc(Cc3c(Cl)cccc3Cl)c(CC#N)c2c1`, 184 °C; for `CCCCNC(=S)C(C)Oc1ccc2oc3cc(Cl)ccc3c2c1` (stereo not drawn), 101 to 104 °C.

`O=c1[nH]n(-c2ccnc(N[C@H]3CC[C@H](O)CC3)n2)c2ccccc12`: the melting point was found to be 264 °C. The same measure for `Oc1cc(C2CC2)[nH]n1`: 213 to 215 °C; for `O=c1[nH][nH]c(=O)c2c(O)c3c(C(F)(F)F)cccc3nc12`: 180 to 182 °C; for `COc1ccc2ccc(NC(=O)c3cccs3)nc2n1`: 220 °C.

In turn, `Cc1ccccc1COC(C)(CO)CO` showed a melting point of 90 to 91 °C. For `CCc1cnc(N2CCN(C(=O)c3ccc(Nc4ncnc5ccccc45)cc3)CC2)nc1` the value was 248 to 249 °C. For `O=CN(O)C(CO)CS(=O)(=O)c1ccc(-c2ccc(Cl)cc2)cc1` (stereo not drawn), the melting point was in the range of 153 to 154 °C. For `c1cc(-c2nccs2)cc(-n2cnc3cc(-c4ccon4)ccc32)c1` the value was 157 to 158 °C.

`CC1(C)CCC(C)(C)c2cc(O)ccc21`: the melting point turned out to be 142 °C. `CC(C)(C)CCC(=S)SC(C)(C)C` returned a melting point of 98 to 99 °C. For `Cc1nc(N2CCN(c3ccccc3)C2=O)sc1C(=O)O` the value was 286 to 289 °C; for `Cc1cc(C(N)=O)ccc1O[C@@H]1CCNC[C@H]1O` (relative stereo), 210 to 212 °C. `COc1ccc(C(=O)C=C2c3ccccc3C(=O)c3ccccc32)cc1OC` yielded a melting point of 160 °C.

Take `CN1CCC(c2cccc(C(F)(F)F)c2)(C(C)(C)O)CC1`: the melting point is 111 to 112 °C. On to `CC1(C)C(=O)Nc2cc(O)c([N+](=O)[O-])cc21`, for which the melting point is 244 to 247 °C. The same measure for `Cn1c2ccccc2c(=O)n2nc(C#N)cc12`: 307 to 310 °C. The same measure for `COc1ccc(S(=O)(=O)N2CC3CCC(C3)C2)c2ccccc12`: 136 to 139 °C. As for `NC(=O)NN=Cc1ccc(OC2CCOCC2)cc1`, the melting point was in the range of 208 to 209 °C. Consider `O=C(CC1c2ccc(-c3ccccc3)cc2S(=O)(=O)N1c1ccccc1)NO` (stereo not drawn), for which the melting point lay in the range of 191 to 193 °C.

`Cc1cc(CBr)cc(Oc2nc(Cl)nc(Cl)c2C(C)C)c1` yielded a melting point of 98 to 101 °C. For `COc1cc(S(N)(=O)=O)cc(C(=O)NC2CCN(CC3CCCCC3)C2)c1OC` (stereo not drawn) the value was 167 °C.

`O=C(N[C@@H](Cc1ccc(-c2c(O)cccc2O)cc1)C(=O)O)c1c(Cl)cccc1Cl` returned a melting point of 238 °C. For `CC(C)c1nnnn1-c1cc(C(=O)O)cc(-c2ccc(Cl)cn2)c1` the value was 180 to 181 °C; for `O=C(CCCCCN1CCN(c2cccc3c2CCCC3)CC1)N1Cc2ccccc2C1`, 115 °C; for `CNC(=O)CC1CN=C(c2cc3cc(Oc4ccc(S(C)(=O)=O)cc4)cc(OC)c3[nH]2)S1` (stereo not drawn), 125 to 126 °C.

`CCOC(=O)Cc1sc(Sc2cc(C(F)(F)F)ccn2)nc1C` returned a melting point of 57 to 59 °C. For `COc1ccc2c(=O)c(-c3ccc(OCC(O)CNC4CCCCC4)cc3)coc2c1` (stereo not drawn) the value was 125 to 126 °C; for `BrCCc1ccc2c(c1)CCO2`, 60 to 62 °C; for `CCOC(=O)C(C)Oc1ccc2c(c1)N(C)C(=O)N(c1ccc(Cl)cc1)S2(=O)=O` (stereo not drawn), 111 to 112 °C.
